These results are taken from publication PMC6099747, “New Tetrahydroisoquinoline Derivatives Overcome Pgp Activity in Brain-Blood Barrier and Glioblastoma Multiforme in Vitro” (Molecules : A Journal of Synthetic Chemistry and Natural …, 2018).

In series [1] the test system is Caco-2 cells monolayer. More on the design: method as in PMID 27336199, PMID 26797828. Conditions: cited from earlier work.
For series [2], the target named is T1, Pgp (Homo sapiens, UniProt P08183).
T1 construct: expressed in transfected cells; host or cells: MDCK (Madin-Darby Canine Kidney) cells, gift of Dr. Maria Alessandra Contino, University of Bari
T1 sequence (P08183 whole entry): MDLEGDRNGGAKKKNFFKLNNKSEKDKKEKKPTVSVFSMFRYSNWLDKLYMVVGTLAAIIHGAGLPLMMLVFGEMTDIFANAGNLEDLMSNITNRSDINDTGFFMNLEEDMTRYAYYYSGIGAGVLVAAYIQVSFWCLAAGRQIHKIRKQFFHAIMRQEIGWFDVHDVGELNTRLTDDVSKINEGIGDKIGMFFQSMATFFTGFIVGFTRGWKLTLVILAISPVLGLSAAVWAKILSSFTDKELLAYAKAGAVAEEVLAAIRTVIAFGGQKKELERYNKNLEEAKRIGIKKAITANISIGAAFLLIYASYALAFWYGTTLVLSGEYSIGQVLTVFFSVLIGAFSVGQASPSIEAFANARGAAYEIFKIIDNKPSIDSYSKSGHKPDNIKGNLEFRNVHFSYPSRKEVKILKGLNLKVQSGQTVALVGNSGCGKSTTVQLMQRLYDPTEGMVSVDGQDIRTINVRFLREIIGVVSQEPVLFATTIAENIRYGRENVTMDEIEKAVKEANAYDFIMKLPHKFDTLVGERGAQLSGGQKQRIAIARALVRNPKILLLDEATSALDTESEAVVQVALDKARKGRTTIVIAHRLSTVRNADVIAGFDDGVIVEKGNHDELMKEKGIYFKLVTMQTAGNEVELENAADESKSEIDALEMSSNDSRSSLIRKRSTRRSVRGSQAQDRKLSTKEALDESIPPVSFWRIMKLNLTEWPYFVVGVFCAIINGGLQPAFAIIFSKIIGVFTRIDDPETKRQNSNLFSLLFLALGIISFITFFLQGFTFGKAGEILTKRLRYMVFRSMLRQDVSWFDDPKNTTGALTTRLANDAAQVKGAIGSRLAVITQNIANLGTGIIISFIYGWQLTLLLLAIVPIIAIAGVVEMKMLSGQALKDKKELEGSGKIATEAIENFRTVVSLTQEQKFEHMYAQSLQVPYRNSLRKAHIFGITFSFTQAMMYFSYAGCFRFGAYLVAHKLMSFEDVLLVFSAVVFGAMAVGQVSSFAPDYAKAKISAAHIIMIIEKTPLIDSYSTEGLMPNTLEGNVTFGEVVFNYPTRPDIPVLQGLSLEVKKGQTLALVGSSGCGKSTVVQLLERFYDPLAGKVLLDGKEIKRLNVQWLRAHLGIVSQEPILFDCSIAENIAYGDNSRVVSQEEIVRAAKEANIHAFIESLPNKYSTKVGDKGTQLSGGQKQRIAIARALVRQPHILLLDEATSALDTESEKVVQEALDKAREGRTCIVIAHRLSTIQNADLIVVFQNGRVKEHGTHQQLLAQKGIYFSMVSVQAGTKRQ
Further details: method as in PMID 27336199, PMID 26797828. Conditions: cited from earlier work.

For series [3], the system named is hCMEC/D3 cells. In words: Transendothelial electrical resistance (TEER) of BBB monolayer. It counts as cell-based, human. As to conditions: 24 h.
The target in series [4] is T1, Pgp. The series is described as follows: Doxorubicin transport across Pgp-MDCK monolayer. It counts as cell-based. Conditions: 1 nM compound 24 h, 5 μM doxorubicin last 3 h. As to the method:
(§1) MDCK, Pgp-MDCK, MRP1-MDCK and BCRP-MDCK cells were a kind gift of Dr. Maria Alessandra Contino (Department of Pharmacy, University of Bari, Italy). Culture and seeding conditions for doxorubicin transport assay were carried out as reported in [37].
(§2) Supplementary Figure S3. Effects of Pgp ligands on doxorubicin transport in Pgp-MDCK,
(§3) MRP1-MDCK and BCRP-MDCK cells
A. MDCK, Pgp-MDCK, MRP1-MDCK, BCRP-MDCK cells were lysed and immunoblotted with […]

In series [5] the target is T2, MRP1 (Homo sapiens, UniProt P33527).
T2 construct: expressed in transfected cells; host or cells: MDCK (Madin-Darby Canine Kidney) cells, gift of Dr. Maria Alessandra Contino, University of Bari
T2 sequence (P33527 whole entry): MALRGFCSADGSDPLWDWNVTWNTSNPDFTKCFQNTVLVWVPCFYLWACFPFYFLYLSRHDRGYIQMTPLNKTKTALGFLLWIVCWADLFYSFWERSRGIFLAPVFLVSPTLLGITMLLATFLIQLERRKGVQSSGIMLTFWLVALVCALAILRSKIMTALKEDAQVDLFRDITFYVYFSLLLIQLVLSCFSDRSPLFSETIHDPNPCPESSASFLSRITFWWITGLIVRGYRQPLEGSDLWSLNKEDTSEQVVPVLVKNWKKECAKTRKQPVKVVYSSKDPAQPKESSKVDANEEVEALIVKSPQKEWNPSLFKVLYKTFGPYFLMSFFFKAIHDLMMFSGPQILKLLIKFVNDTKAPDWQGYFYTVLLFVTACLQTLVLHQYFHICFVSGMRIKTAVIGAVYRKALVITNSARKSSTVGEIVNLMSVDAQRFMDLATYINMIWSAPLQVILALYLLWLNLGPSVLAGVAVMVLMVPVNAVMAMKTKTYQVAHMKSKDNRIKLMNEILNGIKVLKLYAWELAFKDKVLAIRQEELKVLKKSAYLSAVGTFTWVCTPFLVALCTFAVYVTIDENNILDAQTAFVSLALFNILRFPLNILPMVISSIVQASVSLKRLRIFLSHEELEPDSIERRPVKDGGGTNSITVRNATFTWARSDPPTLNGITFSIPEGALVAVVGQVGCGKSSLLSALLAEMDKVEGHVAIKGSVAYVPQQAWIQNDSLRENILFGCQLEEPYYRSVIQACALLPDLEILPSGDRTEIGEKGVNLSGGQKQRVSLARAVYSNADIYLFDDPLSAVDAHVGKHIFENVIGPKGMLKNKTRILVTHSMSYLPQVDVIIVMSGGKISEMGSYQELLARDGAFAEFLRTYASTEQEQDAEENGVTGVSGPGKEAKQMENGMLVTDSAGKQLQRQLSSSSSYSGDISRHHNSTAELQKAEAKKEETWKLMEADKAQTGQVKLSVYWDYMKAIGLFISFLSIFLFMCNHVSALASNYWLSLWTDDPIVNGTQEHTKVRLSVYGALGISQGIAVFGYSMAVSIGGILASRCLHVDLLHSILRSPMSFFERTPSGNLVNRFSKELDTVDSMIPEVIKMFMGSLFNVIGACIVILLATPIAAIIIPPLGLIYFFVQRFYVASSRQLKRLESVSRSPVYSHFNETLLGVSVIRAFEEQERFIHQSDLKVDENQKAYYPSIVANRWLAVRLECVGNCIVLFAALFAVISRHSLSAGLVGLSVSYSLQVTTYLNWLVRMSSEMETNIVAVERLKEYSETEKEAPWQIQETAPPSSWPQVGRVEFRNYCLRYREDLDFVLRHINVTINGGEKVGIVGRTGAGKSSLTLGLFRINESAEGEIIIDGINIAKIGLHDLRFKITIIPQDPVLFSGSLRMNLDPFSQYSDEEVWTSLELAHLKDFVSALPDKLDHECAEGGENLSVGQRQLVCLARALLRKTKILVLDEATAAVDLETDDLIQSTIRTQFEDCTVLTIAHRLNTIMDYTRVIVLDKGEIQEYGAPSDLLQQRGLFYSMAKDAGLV
In words: Doxorubicin transport across MRP1-MDCK monolayer. Conditions: 1 nM compound 24 h, 5 μM doxorubicin last 3 h. The format is cell-based. On the procedure:
as §1, §2, §3
(§4) A. MDCK, Pgp-MDCK, MRP1-MDCK, BCRP-MDCK cells were lysed and immunoblotted with
(§5) h. When indicated, 50 μM verapamil (ver), an inhibitor of Pgp, 25 μM MK571, an inhibitor of […]

Series [6] has as its target T3, BCRP (Homo sapiens, UniProt Q9UNQ0).
T3 construct: expressed in transfected cells; host or cells: MDCK (Madin-Darby Canine Kidney) cells, gift of Dr. Maria Alessandra Contino, University of Bari
T3 sequence (Q9UNQ0 1-655): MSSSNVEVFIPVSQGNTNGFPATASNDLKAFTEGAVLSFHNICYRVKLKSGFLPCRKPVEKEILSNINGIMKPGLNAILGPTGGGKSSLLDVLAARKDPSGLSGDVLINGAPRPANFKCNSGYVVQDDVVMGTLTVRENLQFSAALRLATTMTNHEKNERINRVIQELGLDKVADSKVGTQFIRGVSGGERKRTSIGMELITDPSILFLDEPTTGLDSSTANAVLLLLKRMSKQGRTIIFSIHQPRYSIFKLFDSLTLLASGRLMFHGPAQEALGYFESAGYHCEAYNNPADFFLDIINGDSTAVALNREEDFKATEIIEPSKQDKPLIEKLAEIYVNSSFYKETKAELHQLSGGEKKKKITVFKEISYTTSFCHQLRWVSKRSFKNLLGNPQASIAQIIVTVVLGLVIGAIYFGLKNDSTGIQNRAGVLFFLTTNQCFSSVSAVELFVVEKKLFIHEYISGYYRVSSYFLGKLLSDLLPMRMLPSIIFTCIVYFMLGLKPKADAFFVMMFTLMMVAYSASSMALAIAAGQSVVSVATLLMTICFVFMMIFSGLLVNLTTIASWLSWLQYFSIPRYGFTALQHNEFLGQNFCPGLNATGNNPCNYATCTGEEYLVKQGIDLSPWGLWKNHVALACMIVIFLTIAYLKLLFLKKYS
The series is described as follows: Doxorubicin transport across BCRP-MDCK monolayer. As to conditions: 1 nM compound 24 h, 5 μM doxorubicin last 3 h. The format is cell-based. As to the method: as §1, §2, §3, §4, §5

Series [7] deals with T1, Pgp. As to conditions: Pgp activity, calcein-AM transport; cited from earlier work.
Series [8] deals with hCMEC/D3 cells monolayer. The series is described as follows: Doxorubicin delivery across BBB monolayer (Transwell). Conditions: 25 μM MK571 or 5 μM fumitremorgin C alone, 5 μM doxorubicin 3 h.
Description: Cells were seeded at 50,000/cm² density, and grown for 7 days up to confluence in 6-well Transwell devices (0.4 μm diameter pores-size, Transwell insert surface: 4.67 cm^2; Corning Life Sciences, Chorges, France for transport assays) or 24-well Transwell devices (0.4 μm diameter pores-size, Transwell insert surface: 0.33 cm^2; Corning Life Sciences, for TEER measurements), to allow the formation of a competent BBB. […] TEER was measured using a Voltohmetro Millicell-ERS (Millipore, Bedford, MA, USA), according to the manufacturer’s instructions. […] This value was subtracted from each value obtained in the presence of the cells.
(A) Human cellular microvascular endothelial cells/D3 clone hCMEC/D3 cells were grown in the upper insert of Transwell devices for 7 days. […] Cell viability was measured by a chemiluminescence-based assay, in triplicates. Data are presented as means ± SD (n = 4). […] (B) hCMEC/D3 cells were grown in the upper insert of Transwell devices for 7 days. […] Cells were lysed and immunoblotted with the indicated antibodies. β-Tubulin level was used as control of equal protein loading. […] The amount of doxorubicin in the medium of the lower chamber was measured spectrofluorimetrically, in duplicates. […]
doxorubicin in the medium of the lower chamber was measured spectrofluorimetrically, in […]
Series [9] has as its system primary human GB adherent cells (AC). In words: Cytotoxicity (LDH release, caspase 3 activity, cell viability) in glioblastoma adherent cells. The format is cell-based. Conditions: 5 µM doxorubicin alone. As to the method:
Cell viability was evaluated by ATPLite kit (PerkinElmer), as per manufacturer’s instructions. The results were expressed as percentage of viable cells in each experimental condition versus untreated cells (considered 100%).
The release of LDH in cell supernatant was measured as reported in [16], using a Synergy HT microplate reader. Both intracellular and extracellular enzyme activities were expressed as μmol NADH oxidized/min/dish, then extracellular LDH activity was calculated as percentage of the total LDH activity. For cytotoxicity assays in co-cultures, 5 μM doxorubicin, alone or in the presence of compounds, was added to the upper chamber of Transwell inserts. After 24 h, both cell culture medium and GB cells from the lower chamber were collected, and checked for the activity of LDH, as described above.
The activity of caspase 3, taken as an index of apoptosis, was measured by incubating 20 µg of cell lysates, collected from GB cells or GB cells growing under BBB monolayer, as reported above, with the fluorogenic substrate of caspase 3 DEVD-7-amino-4-methylcumarine (DEVD-AMC), as reported in [11]. Results were expressed as nmoles AMC/mg proteins, using a calibration curve previously set.
Figure 3 Effects of Pgp ligands on doxorubicin cytotoxicity in glioblastoma cells. Adherent cells (AC) or neurospheres (NS) from glioblastoma samples were grown for 24 h (panel A–B) or 48 h (panel C) in fresh medium (ctrl) or in the presence of 1 nM of compounds 1–6. When indicated, 5 µM doxorubicin (doxo) was co-incubated. (A) The cell culture supernatant was checked spectrophotometrically for the extracellular activity of LDH, in duplicates. Pooled data of patients 1-3 are presented as means ± SD (n = 3). Vs. AC ctrl: * p < 0.001; vs. NS ctrl: ° p < 0.001; vs. NS doxo: ^# p < 0.001. (B) The activity of caspase 3 was measured fluorimetrically, in duplicates. Data are means ± SD (n = 3). Pooled data of patients 1–3 are presented as means ± SD (n = 3). Vs. AC ctrl: * p < 0.001; vs. NS ctrl: ° p < 0.01; vs. NS doxo: ^# p < 0.05. […] Pooled data of patients 1-3 are presented as means ± SD (n = 3). […]
On the technique in general: LDH in the medium is a marker of cell lysis.

Series [10] concerns hCMEC/D3 cells monolayer. In words: Permeability of dextran-FITC, sucrose, inulin and lucifer yellow across BBB monolayer.

pEC50: −log10 of the molar value. Read-outs that look alike come from different tables or passages of the source.

`COc1cc2c(cc1OC)CN(Cc1ccc(-c3ccc(O)cc3)cc1)CC2` [7 (MC70), 4′-(6,7-Dimethoxy-3,4-dihydro-1H-isoquinolin-2-ylmethyl)biphenyl-4-ol]: the apparent permeability ratio in [1] is reported as below 2. For the same compound, in series [2], the ATP depletion entry is recorded as “does not induce ATP depletion”.
Usually pEC50 stands for −log10 of the EC50, conventionally taken in molar units. Consider `CCCCOc1ccc(-c2ccc(CN3CCc4cc(OC)c(OC)cc4C3)cc2)cc1` [Compound 6], for which, in [3] (1 nM compound), the “TEER (Ω cm^2) Compound 1 nM” value was 33 ± 2 Ω cm^2. In addition, in series [3] (100 nM compound), the “TEER (Ω cm^2) Compound 100 nM” value is 31 ± 4 Ω cm^2. The “doxorubicin permeability across Pgp-MDCK monolayer” value in series [4] is on record as “did not change”. Further, in series [5], the “doxorubicin delivery across MRP1-MDCK cells” value was “strongly reduced”. Besides, the “doxorubicin delivery across BCRP-MDCK cells” value in series [6] is on record as “strongly reduced”. For the same compound, in [7], the pEC50 is 8.28.
Turning to `CN(C)C(=O)CCSC(SCCC(=O)O)c1cccc(/C=C/c2ccc3ccc(Cl)cc3n2)c1` (stereo not drawn) [MK571], the “doxorubicin delivery across hCMEC/D3 cells monolayer” value in series [8] is given as “increased”.
As for `COc1cccc2c1C(=O)c1c(O)c3c(c(O)c1C2=O)C[C@@](O)(C(=O)CO)C[C@@H]3O[C@H]1C[C@H](N)[C@H](O)[C@H](C)O1` [doxorubicin], in series [9] (24 h), the LDH release entry is given as “increased” and the “caspase 3 activity” value is recorded as “increased”. Besides, the cell viability entry in [9] (48 h) is listed as “decreased”.
As for `COc1ccc2c3c([nH]c2c1)[C@H](C=C(C)C)N1C(=O)[C@@H]2CCCN2C(=O)[C@@H]1C3` [fumitremorgin C], in series [8], the “doxorubicin delivery across hCMEC/D3 cells monolayer” value was “increased”.
On to [^14C]-inulin, for which the “permeability coefficient across BBB monolayer” value in series [10] (hCMEC/D3 monolayer without compounds, 3 h) is 0.45 ± 0.07 × 10^−3 cm·min^−1.
As for lucifer yellow, the “permeability coefficient across BBB monolayer” value in series [10] is on record as 0.43 ± 0.11 × 10^−3 cm·min^−1.
